Drawing on patent US20250340516A1, “Isoquinolinones as Modulators of POLRMT” (Pretzel Therapeutics, Inc., priority 2024, published 2025), this text covers IC50 for 18 compounds.

Chain of POLRMT (O00411 42-1230): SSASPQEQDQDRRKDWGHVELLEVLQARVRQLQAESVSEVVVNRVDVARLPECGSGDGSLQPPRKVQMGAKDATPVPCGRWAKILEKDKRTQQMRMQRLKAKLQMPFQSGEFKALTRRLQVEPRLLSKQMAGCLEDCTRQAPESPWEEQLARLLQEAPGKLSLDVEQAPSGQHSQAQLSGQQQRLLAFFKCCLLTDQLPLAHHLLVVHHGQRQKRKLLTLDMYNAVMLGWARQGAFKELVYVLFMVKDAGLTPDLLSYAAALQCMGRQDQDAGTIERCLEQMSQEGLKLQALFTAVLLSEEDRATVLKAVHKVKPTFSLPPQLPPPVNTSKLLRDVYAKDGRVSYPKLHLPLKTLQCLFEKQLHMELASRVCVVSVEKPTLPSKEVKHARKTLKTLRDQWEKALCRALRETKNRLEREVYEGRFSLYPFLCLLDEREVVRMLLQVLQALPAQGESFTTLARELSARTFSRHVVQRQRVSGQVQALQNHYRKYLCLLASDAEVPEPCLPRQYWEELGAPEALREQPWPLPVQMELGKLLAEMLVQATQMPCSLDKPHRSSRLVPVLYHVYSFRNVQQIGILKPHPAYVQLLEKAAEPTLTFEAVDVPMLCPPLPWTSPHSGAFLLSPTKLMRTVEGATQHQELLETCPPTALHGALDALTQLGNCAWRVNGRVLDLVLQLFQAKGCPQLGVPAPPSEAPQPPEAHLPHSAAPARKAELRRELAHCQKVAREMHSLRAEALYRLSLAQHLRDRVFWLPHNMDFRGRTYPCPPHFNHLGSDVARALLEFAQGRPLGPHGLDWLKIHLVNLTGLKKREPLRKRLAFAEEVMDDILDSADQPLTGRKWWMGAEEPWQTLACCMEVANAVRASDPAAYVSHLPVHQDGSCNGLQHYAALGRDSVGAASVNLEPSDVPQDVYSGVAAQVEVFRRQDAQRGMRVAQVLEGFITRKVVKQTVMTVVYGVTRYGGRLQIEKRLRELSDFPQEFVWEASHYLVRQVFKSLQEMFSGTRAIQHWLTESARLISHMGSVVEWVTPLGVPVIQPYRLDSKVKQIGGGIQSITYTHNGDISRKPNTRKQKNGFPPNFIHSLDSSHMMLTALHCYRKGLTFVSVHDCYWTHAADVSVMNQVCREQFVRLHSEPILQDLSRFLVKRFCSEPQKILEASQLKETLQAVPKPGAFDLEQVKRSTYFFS

The assay has as its target POLRMT (Homo sapiens (Human), UniProt O00411). The assay can be described thus: homogeneous TR-FRET assay of POLRMT inhibition (mitochondrial transcription, 407 bp RNA product). The class given is biochemical. Particulars: 7.5 nM POLRMT, 15 nM TFB2M, 30 nM TFAM, 0.5 nM DNA template, 500 μM NTPs, 37° C., 60 minutes, * = aggregation of data sets, read-out: IC50 values for isoquinolinone compounds. As for the experimental part: The inhibitory activity of the compounds of the present invention against POLRMT were determined by assays based on Bergbrede, T., et al., “An adaptable high-throughput technology enabling the identification of specific transcription modulators,” SLAC Discov., 22, 378-386 (2017).
The ability of some compounds of the present invention to inhibit POLRMT were determined in a homogeneous TR-FRET Assay using high-throughput screening in a 384-well plate format. This method is used to monitor the activity of mitochondrial transcription through measurement of its product, a 407 bp long RNA transcript. Detection of the product is facilitated by hybridization of two DNA-oligonucleotide probes to specific and adjacent sequences within the RNA product sequence. Upon annealing of the probes, two fluorophores are coupled directly to an acceptor nucleotide probe (ATTO647, 5′), or introduced via a coupled streptavidin with a biotinylated donor nucleotide probe (Europium cryptate) that is brought into sufficient proximity to serve as a fluorescence-donor-acceptor pair. Thus, a FRET signal at 665 nm is generated upon excitation at 340 nm.
Proteins used as transcription factors (POLRMT: NP_005026.3, TFAM: NP_003192.1, TFB2M: NP_071761.1) are diluted from their stocks to working concentrations of 1 μM, 20 μM and 4 μM respectively, in a dilution buffer containing 20 mM Tris-HCl (pH 8.0), 200 mM NaCl, 10% (v/v) glycerol, 1 mM Dithiothreitol (DTT), 0.5 mM EDTA.
DNA template is a pUC18 plasmid with the mitochondrial light strand promotor sequence (1-477) cloned between HindIII and BamHI sites. The DNA template is restriction linearized proximal to the promotor 3′-end (pUC-LSP).
The reaction mixture (10 uL) containing 7.5 nM POLRMT, 15 nM of TFB2M, 30 nM of TFAM, 0.5 nM of DNA template and 500 μM nucleotide triphosphate mix (NTPs) in a reaction buffer (containing 10 mM Tris-HCl (pH 7.5), 10 mM MgCl2, 40 mM NaCl, 10 mM DTT, 0.005% (w/v) Tween-20, 160 units/ml Rnase inhibitor and 0.1 mg/mL BSA) are dispensed to compounds in microplates, using a Thermo Multidrop® dispenser, and incubated at 37° C. in a VWR INCU-Line incubator for 60 minutes after mixing. No nucleotide triphosphate mix is added to negative control samples. Microplates with compounds to be tested in the assay are prepared from 10 mM compound stocks in 100% DMSO, equal amounts of DMSO without any compound are added to positive control and negative control samples.
During the incubation, a mix of the detection reagents is prepared in a buffer such that the enzymatic reaction is terminated due to chelating of Mg-ions and increased ionic strength, containing 50 mM Tris-HCl (pH 7.5), 700 mM NaCl, 20 mM EDTA, and 0.01% (w/v) Tween-20. Europium-streptavidin is pre-incubated with a 200-fold molar excess of a random sequence oligonucleotide to block unspecific binding of oligo, for two hours at ambient temperature in the dark. Afterwards, the blocked Europium-streptavidin is kept on ice until use.
At the end of the enzymatic reaction time, 5 μL detection oligo mix in the detection buffer is added, and assay plates are mixed and kept at ambient temperature for one hour, protected from light. The concentration of the Acceptor nucleotide oligo (e.g., ATTO647N-5′-[…]-3′ (SEQ ID NO: 1)) and Donor nucleotide oligo (e.g., bio-5′-AACACATCTCT(-bio)GCCAAACCCCA-bio-3′ (SEQ ID NO: 2)) in each assay well is 1 nM, and 3 nM, respectively.
After incubation with oligo mix, 5 μL of pre-blocked Europium-streptavidin reagent is dispensed to each assay well, assay plates are again mixed and kept at ambient temperature for one hour, protected from light.
The generated signal is measured with BMG Pherastar microtiter plate reader with a TRF light unit, using excitation at 340 nm, an integration time of 200 μs, and a delay time of 100 μs, before detection at 620 nm and 665 nm. The ratio of donor- and acceptor-fluorescence is used as a measure of the generated transcript product (i.e. enzymatic activity).
(Time-resolved FRET reads energy transfer from a long-lived donor to a nearby acceptor.)
For `CC(=O)N1CCN(C[C@H](C)Oc2ccc3c(-c4ccccc4C)c[nH]c(=O)c3c2)CC1` [Example 55, (S)-7-((1-(4-acetylpiperazin-1-yl)propan-2-yl)oxy)-4-(o-tolyl)isoquinolin-1(2H)-one], the IC50 (in general, the concentration that inhibits the measured activity by half) amounted to 37000 nM.
The same measure for `Cc1cc(F)ccc1-c1c[nH]c(=O)c2cc(O[C@H](C)C(=O)N3CCN(C(N)=O)CC3)ccc12` [Example 56, (R)-4-(2-((4-(4-fluoro-2-methylphenyl)-1-oxo-1,2-dihydroisoquinolin-7-yl)oxy)propanoyl)piperazine-1-carboxamide]: 30 nM.
As for `Cc1c(F)cccc1-c1c[nH]c(=O)c2cc(O[C@H](C)C(=O)N3CCN(C(N)=O)CC3)ccc12` [Example 57, (R)-4-(2-((4-(3-fluoro-2-methylphenyl)-1-oxo-1,2-dihydroisoquinolin-7-yl)oxy)propanoyl)piperazine-1-carboxamide], the IC50 was determined as 20 nM.
As to `Cc1ccccc1-c1c[nH]c(=O)c2cc(O[C@H](C)C(=O)NCC(N)=O)ccc12` [Example 60, (R)-N-(2-amino-2-oxoethyl)-2-((1-oxo-4-(o-tolyl)-1,2-dihydroisoquinolin-7-yl)oxy)propanamide], the IC50 was found to be 100 nM.
In the case of `Cc1ccccc1-c1c[nH]c(=O)c2cc(O[C@H](C)C(=O)N(C)CC(N)=O)ccc12` [Example 61, (R)-N-(2-amino-2-oxoethyl)-N-methyl-2-((1-oxo-4-(o-tolyl)-1,2-dihydroisoquinolin-7-yl)oxy)propanamide] it was 100 nM.
In the case of `Cc1ccccc1-c1c[nH]c(=O)c2cc(O[C@H](C)C(=O)NC3(C(N)=O)CC3)ccc12` [Example 62, (R)-1-(2-((1-oxo-4-(o-tolyl)-1,2-dihydroisoquinolin-7-yl)oxy)propanamido)cyclopropane-1-carboxamide] it was 100 nM; in that of `COCCc1ccccc1-c1c[nH]c(=O)c2cc(OCC#N)ccc12` [Example 63, 2-((4-(2-(2-methoxyethyl)phenyl)-1-oxo-1,2-dihydroisoquinolin-7-yl)oxy)acetonitrile], greater than 100000 nM.
As for `Cc1ccccc1-c1c[nH]c(=O)c2cc(O[C@H](C)C(=O)N3CC[C@@H](N(C)C)C3)ccc12` [Example 64, 7-(((R)-1-((R)-3-(dimethylamino)pyrrolidin-1-yl)-1-oxopropan-2-yl)oxy)-4-(0-tolyl)isoquinolin-1(2H)-one], the IC50 came out at 200 nM.
Regarding `Cc1ccccc1-c1c[nH]c(=O)c2cc(O[C@H](C)C(=O)N3CC[C@H](N(C)C)C3)ccc12` [Example 65, 7-(((R)-1-((S)-3-(dimethylamino)pyrrolidin-1-yl)-1-oxopropan-2-yl)oxy)-4-(o-tolyl)isoquinolin-1(2H)-one], the IC50 is 100 nM.
Consider `CNC1CCN(C(=O)[C@@H](C)Oc2ccc3c(-c4ccccc4C)c[nH]c(=O)c3c2)CC1` [Example 68, (R)-7-((1-(4-(methylamino)piperidin-1-yl)-1-oxopropan-2-yl)oxy)-4-(o-tolyl)isoquinolin-1(2H)-one], for which the IC50 was 200 nM.
In the case of `Cc1ccccc1-c1c[nH]c(=O)c2cc(N(C)CC(=O)N[C@H](C)C(N)=O)ccc12` [Example 69, (R)-2-(2-(methyl(1-oxo-4-(o-tolyl)-1,2-dihydroisoquinolin-7-yl)amino)acetamido)propanamide], the IC50 came to 3000 nM.
As to `Cc1c(F)cccc1-c1c[nH]c(=O)c2cc(N(C)CC(=O)NCCO)ccc12` [Example 70, 2-((4-(3-fluoro-2-methylphenyl)-1-oxo-1,2-dihydroisoquinolin-7-yl)(methyl)amino)-N-(2-hydroxyethyl)acetamide], the concentration for half-maximal inhibition (IC50) was determined as 1000 nM.
In the case of `Cc1cccc(CO)c1-c1c[nH]c(=O)c2cc(OCC(F)(F)F)ccc12` [Example 71, 4-(2-(hydroxymethyl)-6-methylphenyl)-7-(2,2,2-trifluoroethoxy)isoquinolin-1(2H)-one], the half-inhibitory concentration (IC50) was found to be 80 nM.
Consider `Cc1cccc(CO)c1-c1c[nH]c(=O)c2cc(OCC(F)F)ccc12` [Example 72, 7-(2,2-difluoroethoxy)-4-(2-(hydroxymethyl)-6-methylphenyl)isoquinolin-1(2H)-one], for which the IC50 turned out to be 100 nM.
Take `Cc1ccccc1-c1c[nH]c(=O)c2cc(O[C@H](C)C(=O)N[C@@H](C)C(N)=O)ccc12` [Example 73, (R)-N-((S)-1-amino-1-oxopropan-2-yl)-2-((1-oxo-4-(o-tolyl)-1,2-dihydroisoquinolin-7-yl)oxy)propanamide]: the half-inhibitory concentration (IC50) stood at 100 nM.
Regarding `[2H]C([2H])([2H])c1ccccc1-c1c[nH]c(=O)c2cc(O[C@H](C)C(=O)N3CCN(C(N)=O)CC3)ccc12` [Example 74, (R)-4-(2-((4-(2-(methyl-d3)phenyl)-1-oxo-1,2-dihydroisoquinolin-7-yl)oxy)propanoyl)piperazine-1-carboxamide], the IC50 came out at 80 nM.
The same measure for `CCNC1CCN(C(=O)[C@@H](C)Oc2ccc3c(-c4ccccc4C)c[nH]c(=O)c3c2)CC1` [Example 77, (R)-7-((1-(4-(ethylamino)piperidin-1-yl)-1-oxopropan-2-yl)oxy)-4-(o-tolyl)isoquinolin-1(2H)-one]: 1000 nM; for `Cc1ccccc1-c1c[nH]c(=O)c2cc(O[C@H](C)C(=O)N(C)CC(=O)O)ccc12` [Example 78, (R)-N-methyl-N-(2-((1-oxo-4-(o-tolyl)-1,2-dihydroisoquinolin-7-yl)oxy)propanoyl)glycine]: 1000 nM.
